From US20140328933A1, “NOVEL FORMULATIONS AND METHODS” (priority 2010, published 2014)
Where no end group is shown, it is not given here.

Tested on: Angiogenesis in the CAM Model
Experiment: Chorioallantoic Membrane Angiogenesis (CAM) Model, branch points formation
Format: in vivo
Excerpt: VIP in Chorioallantoic Membrane Angiogenesis (CAM) Model
FIG. 15 depicts the results of testing regarding Nanoparticle encapsulates.

Substance: Vasoactive intestinal peptide (HSDAVFTDNYTRLRKQMAVKKYLNSILN-NH2) [VIP, peptide hormone containing 28 amino acid residues]
- Total # of branches [VIP (1 ng/CAM) - PBS(average)], Mean (VIP 1 ng/CAM, PBS average subtracted): 34.8
- Total # of branches [VIP (10 ng/CAM) - PBS(average)], Mean (VIP 10 ng/CAM, PBS average subtracted): 53.6
- number of branches, Mean (VIP 0.1 ug/ml, 1 ng/CAM): 84.8
- Total # of branches [VIP (100 ng/CAM) - PBS(average)], Mean (VIP 100 ng/CAM, PBS average subtracted): 71.7
- number of branches, Mean (VIP 1 ug/ml, 10 ng/CAM): 103.6
- number of branches, Mean (VIP 10 ug/ml, 100 ng/CAM): 121.7
